Measured values as given in publication PMC9655818, “Cytoprotective Polyketides from Sponge-Derived Fungus Lopadostoma pouzarii” (Molecules, 2022).

Legend:
DPPH scavenging assay = conditions: for DPPH Radicals, % of Control: compounds at 100 µM, 30 min, absorbance 520 nm, mean ± SEM
Protocol: The compounds were dissolved in DMSO, and the solutions (120 µL) were dispensed into wells of a 96-well microplate. In all, 30 µL of the DPPH (Sigma-Aldrich, Steinheim, Germany) solution in MeOH (1.5 × 10^−4 M) was added to each well. The concentrations of the compounds in mixture were 10 and 100 µM. Pure DMSO was used as a control. The ascorbic acid was used as a positive control. The mixture was shaken and left to stand for 30 min, and the absorbance of the resulting solution was measured at 520 nm with a microplate reader MultiscanFC (ThermoLabsystems Inc., Beverly, MA, USA). The radical scavenging activity of all compounds at 100 µM was presented as a percent of the DMSO data.

[1] = tested on: human prostate cancer PC-3 cells; experiment: Cell viability (MTT) assay, cytotoxic activity toward PC-3 cells; assay type: cell-based; conditions: 48 h; for IC50: Homo sapiens, PC-3 cells; for decrease of PC-3 cell viability: concentration of 100 µM
Protocol: (§1) The human cancer PC-3 cells were purchased from ATCC (Manassas, VA, USA). The rat cardiomyocytes H9c2 cells were kindly provided by Prof. Dr. Gunhild von Amsberg from Martini-Klinik Prostate Cancer Center, University Hospital Hamburg-Eppendorf, Hamburg, Germany.
(§2) The PC-3 and H9c2 cells were seeded at concentrations of 5 × 10^3 cell/well and 3 × 10^3 cell/well, respectively, and the experiments were started after 24 h. The compounds at concentrations up to 100 µM were added into the wells for 48 h, and the viability of the cells was measured by an MTT (3-(4,5-dimethylthiazol-2-yl)-2,5-diphenyltetrazolium bromide) assay, which was performed according to the manufacturer’s instructions (Sigma-Aldrich, Munich, Germany). All compounds were diisolved with DMSO so that the final concentration of DMSO in the cell culture was not more than 1%. Moreover, DMSO was used as a control.
(§3) The results were presented as a percent of the control data, and the concentration of the cell viability inhibition on 50% (IC50) was calculated.

[2] = tested on: rat normal cardiomyocytes H9c2; experiment: Cell viability (MTT) assay, cytotoxic activity toward H9c2 cells; assay type: cell-based; conditions: 48 h
Protocol: as §1, §2, §3

CoCl2-treated H9c2 cells = experiment: Cardioprotective activity in CoCl2-mimic hypoxia; assay type: cell-based, rat; conditions: MTT
Protocol: The H9c2 cells were treated with a dH2O-solution of CoCl2 at a concentration of 500 µM for 2 h. Then, compounds at a concentration of 10 µM were added for 46 h. The viability of the H9c2 cells was measured by an MTT assay.

[3] = tested on: rotenone-treated H9c2 cells; experiment: Cardioprotective activity against rotenone-induced toxicity; assay type: cell-based, rat
Protocol: The H9c2 cells were treated with rotenone (0.1% DMSO solution) at a concentration of 10 µM for 1 h. Then, compounds at a concentration of 10 µM were added for 23 h. The viability of the H9c2 cells was measured by an MTT assay.

| SMILES | DPPH Radicals, % of Control (DPPH scavenging assay) | IC50 [1] [µM] | decrease of PC-3 cell viability [1] | IC50 [2] [µM] | decrease of the amount of DPPH radical (DPPH scavenging assay; concentration of 100 µM) [%] | viability at 10 µM (CoCl2-treated H9c2 cells; Rattus norvegicus, H9c2, compound at 10 µM for 46 h after CoCl2 500 µM for 2 h, read-out: increase of viability of CoCl2-treated H9c2 cells) [%] | viability at 10 µM ([3]; Rattus norvegicus, H9c2, read-out: increase of viability of rotenone-treated H9c2 cells) [%] | decrease of viability of H9c2 cells by rotenone treatment ([3]; rotenone 10 µM, MTT) [%] | decrease of viability of H9c2 cells by CoCl2 treatment (CoCl2-treated H9c2 cells; CoCl2 500 µM) [%] |
| --- | --- | --- | --- | --- | --- | --- | --- | --- | --- |
| C[C@@H]1C/C=C/[C@@H](O)C/C=C/[C@@H](O)CC(=O)O1 [Compound 5, dendrodolide G] | 98.9 ± 1.4 % of Control | > 100 | 27–32% | > 100 | – | – | – | – | – |
| COC1=C(OC)C(=O)C(C)C(C)C1=O (centres unmarked) [Compound 3, gliorosein] | 86.1 ± 1.8 % of Control | 58.9 ± 1.5 | – | > 100 | 13.9 | 23.5 | 16.6 | – | – |
| C=C(C)[C@H]1Cc2c(ccc3c2O[C@@H]2COc4cc(OC)c(OC)cc4[C@@H]2C3=O)O1 [rotenone, reference compound] | – | – | – | – | – | – | – | 32.1 | – |
| C[C@@H]1C/C=C/C(=O)C/C=C/[C@H](O)CC(=O)O1 [Compound 4, balticolid] | 98.6 ± 3.4 % of Control | 38.9 ± 1.9 | – | > 100 | – | – | – | – | – |
| C/C=C/C=C/C=C/[C@@H]1C[C@@H](O)[C@H](O)[C@H](O)[C@@H]1CO [Compound 8, dendrodochol B] | 99.4 ± 3.3 % of Control | > 100 | 27–32% | > 100 | – | – | – | – | – |
| [Cl-].[Cl-].[Co+2] [CoCl2, cobalt chloride (II), reference compound] | – | – | – | – | – | – | – | – | 54.1 |
| COC1=C(OC)[C@@H](O)[C@](C)(O)[C@@H](C)C1=O [Compound 1, lopouzanone A] | 93.8 ± 0.5 % of Control | > 100 | 27–32% | > 100 | – | – | – | – | – |
| C/C=C/C=C/C=C/[C@@H]1C[C@@H](OC(C)=O)[C@H](O)[C@H](O)[C@@H]1CO [Compound 9, 1-O-acetyl dendrodochol B] | 102.7 ± 1.8 % of Control | > 100 | 27–32% | > 100 | – | – | – | – | – |
| COC1=C(OC)C(O)C(C)(O)C(C)C1=O (centres unmarked) [Compound 2, lopouzanone B] | 100.2 ± 1.0 % of Control | > 100 | 27–32% | > 100 | – | – | – | – | – |
| O=C1O[C@H]([C@@H](O)CO)C(O)=C1O [Ascorbic acid, ascorbic acid, reference compound] | 10.5 ± 3.2 % of Control | – | – | – | – | – | – | – | – |
